How the values were obtained:
Aromatase = biological target: T1, Aromatase (Rattus norvegicus, UniProt P22443)
T1 sequence (P22443 whole entry): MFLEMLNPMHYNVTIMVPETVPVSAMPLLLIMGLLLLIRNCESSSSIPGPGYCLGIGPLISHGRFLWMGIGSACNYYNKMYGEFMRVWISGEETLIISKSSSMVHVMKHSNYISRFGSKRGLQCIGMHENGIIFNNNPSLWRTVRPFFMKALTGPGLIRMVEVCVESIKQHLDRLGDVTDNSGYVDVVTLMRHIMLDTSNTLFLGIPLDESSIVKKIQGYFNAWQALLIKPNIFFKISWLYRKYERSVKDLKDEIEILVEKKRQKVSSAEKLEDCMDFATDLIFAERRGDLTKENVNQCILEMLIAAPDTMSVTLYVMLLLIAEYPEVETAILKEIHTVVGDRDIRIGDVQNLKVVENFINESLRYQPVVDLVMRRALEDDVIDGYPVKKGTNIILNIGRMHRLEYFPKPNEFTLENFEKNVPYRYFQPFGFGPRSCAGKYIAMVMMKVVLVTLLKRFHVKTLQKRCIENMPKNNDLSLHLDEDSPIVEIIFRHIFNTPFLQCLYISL

[1] = biological target: T2, Cholesterol side-chain cleavage enzyme, mitochondrial (Homo sapiens, UniProt P05108); assay type: functional, Cricetulus griseus
T2 sequence (P05108 whole entry): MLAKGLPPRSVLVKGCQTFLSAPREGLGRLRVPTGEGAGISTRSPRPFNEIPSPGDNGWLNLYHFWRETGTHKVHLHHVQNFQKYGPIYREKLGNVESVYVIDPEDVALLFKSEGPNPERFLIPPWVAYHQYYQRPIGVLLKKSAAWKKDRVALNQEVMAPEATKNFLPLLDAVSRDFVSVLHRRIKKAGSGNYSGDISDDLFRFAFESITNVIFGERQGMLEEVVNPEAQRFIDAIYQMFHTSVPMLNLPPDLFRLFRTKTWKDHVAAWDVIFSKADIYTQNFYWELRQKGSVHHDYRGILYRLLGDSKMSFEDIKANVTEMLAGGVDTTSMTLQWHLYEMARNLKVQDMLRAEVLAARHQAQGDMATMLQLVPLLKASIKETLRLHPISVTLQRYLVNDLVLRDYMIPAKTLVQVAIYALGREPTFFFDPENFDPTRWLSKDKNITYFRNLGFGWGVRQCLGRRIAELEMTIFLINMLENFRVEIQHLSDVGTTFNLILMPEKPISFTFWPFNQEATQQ

Compound: OCc1ccc(C2CCCc3cncn32)cc1 (centres undefined)
- EDmin (Aromatase): 0.5 µM/kg

Compound: CCC1(c2ccc(N)cc2)CCC(=O)NC1=O (centres undefined) [AMINOGLUTETHIMIDE]
- IC50 [1]: 80 µM

Compound: Brc1ccc(C2CCCc3cncn32)cc1.Cl (centres undefined)
- EDmin (Aromatase): 0.5 µM/kg

Compound: CCOC(=O)c1ccc(C2CCCc3cncn32)cc1.Cl (centres undefined)
- EDmin (Aromatase): > 10 µM/kg
